Columns and labels:
[1] = test system: male patients diagnosed with autism; test: Study HT 02-121: Vineland Adaptive Behavior Scales, Second Edition (VABS II); type: in vivo, human; conditions: Week 4/LOCF
Description: This clinical study was a randomized double-blind, placebo-controlled two-cohort, 4-week dose-escalation study that incorporated two open-label treatment groups to assess the safety and efficacy of L1-79 100 mg and 200 mg TID in male patients between the ages of […] years of age diagnosed with autism. The first cohort of 20 patients was comprised of three groups of patients: The first group of five patients received open-label L1-79 100 mg TID and underwent PK and EKG assessments. The remaining two groups in this cohort consisted of 15 patients randomized on a 2:1 basis to receive L1-79 100 mg TID or placebo. The PK and safety data from the open-label L1-79 100 mg TID group was submitted to FDA for review and acceptance before the second cohort was enrolled. The second cohort was procedurally identical to the first. The second cohort of 20 patients was comprised of the same three groups of patients but a dose of 200 mg TID was used instead of 100 mg TID. The key inclusion criteria were as follows: (1) males between 13 and 21 years of age, (2) DSM-5 compliant diagnosis of autism spectrum disorder, confirmed by the Autistic Diagnosis Interview Review (ADIR), and by an ADOS-2 score consistent with a diagnosis of autism, (3) must have been stable on no more than one concomitant medication and no planned changes in psychosocial interventions during the study.
The primary efficacy endpoint was the determination of the clinical improvement by the investigator as documented by the Clinical Global Impression (CGI) rating scales. Additional efficacy endpoints included: (1) changes from baseline in the Socialization and Communication Domains of the Vineland Adaptive Behavior Scales, Second Edition (VABS II) parent/caregiver rating form, (2) changes from baseline in the ADOS-2 Total Score and subscores, (3) changes in the Social Responsiveness Scale, Second Edition (SRS-2) Total Score and subscales, (4) changes in the ABC-C domains, (5) changes in the Repetitive Behavior Scale-Revised (RBS-R) Total Score and subscales. Given the exploratory design of this study only descriptive statistics were planned.
In the preliminary study, all forms were completed at the study site in the presence of the investigator. In Cohort 1 of the present study, the VABS-II, SRS-2, ABC-C and RBS-R were filled out at home by the patient/patient's families prior to treatment visits and returned at treatment visits in order to expedite the execution of the study.

[2] = test system: patients qualified under the DSM-5 definition of autism; test: Example 4: adverse events and clinical observation; type: in vivo, human
Description: α-methyl-DL tyrosine (AMPT) was administered to 3 patients. This group of patients was qualified under the DSM-5 definition of autism and treated.

[3] = Study HT 02-121: L1-79 plasma concentrations (pharmacokinetics); type: in vivo; conditions: male, human, open-label 200 mg TID, read-out: plasma concentration at 1-hour post-dose on Day 1
Description: The first five patients in each cohort were assigned to receive active medication in an open-label fashion. The patients were treated identically to the randomized patients with the following exceptions: (1) blood samples were drawn at baseline and 1 hour after dosing, and at Week 1, 2, 3 and 4 treatment visits 1 hour after dosing to determine the PK of L1-79, (2) EKGs were assessed at baseline and within 3-days prior to the Week 1, 2, 3 and 4 treatment visits as well as the 1-week and 4-week post-dosing follow-up visits, (3) vital signs, physical exams, and ASD assessments were performed at 1-week postdosing visit, (4) blood and urine samples were drawn at baseline and at Week 1, 2, 3 and 4 treatment visits 1 hour after dosing as well as the 1-week and 4-week post-dosing follow-up visits for safety analyses.
Pharmacokinetics were assessed in the open-label 100 mg and 200 mg TID patients. On Day 1, L-79 concentrations were assessed one-hour post dose. Subsequently, a random L1-79 plasma concentration was assessed at Week 1, Week 2, Week 3 and Week 4.

patients with autism = test: Example 5: open-label evaluation of L1-79 (ABC-C, ADOS-2); type: in vivo, human
Description: L1-79 was used anecdotally in two patients followed by a more structured evaluation in 8 additional patients with autism. All patients were administered a starting dose of L1-79 of 90 mg TID for a minimum of 3 months. During the evaluation doses as high as 400 mg TID were used. A summary of data available on these 10 patients was provided in the Summary of Clinical Efficacy, Use of L1-79 to treat autism, submitted to IND 128673, sequence number 0005.

## CC(N)(Cc1ccc(O)cc1)C(=O)O (racemic) [L1-79, α-methyl-DL-tyrosine]
[1]; DB 100 mg TID
  VABS II Standardized Communication Score Mean Change from Baseline: 10.1
  VABS II Standardized Communication Score Treatment effect versus placebo: 3.6
  VABS II Standardized Communication Score change, median: −1, 5, 16
  VABS II Standardized Socialization Score Mean Change from Baseline: −4.2
  VABS II Standardized Socialization Score Treatment effect versus placebo: −5.0
  VABS II Standardized Socialization Score change, median: −13, −12, 9
[1]; DB 200 mg TID
  VABS II Standardized Communication Score Mean Change from Baseline: 2.7
  VABS II Standardized Communication Score Treatment effect versus placebo: −3.8
  VABS II Standardized Communication Score change, median: 0, 1, 3
  VABS II Standardized Socialization Score Mean Change from Baseline: 7.6
  VABS II Standardized Socialization Score Treatment effect versus placebo: 6.8
  VABS II Standardized Socialization Score change, median: 0, 1, 20
[2]; Example 4 patients
  adverse events reported: mild tiredness on the first day of dosing in two patients
  clinical improvements, onset and durability: begin quickly and are durable
[2]; patient 01-001, 90 TID
  Adverse Events: None
[2]; patient 01-002, 90 TID
  Adverse Events: None
[2]; patient 01-003, 90 TID
  Adverse Events: None
[3]
  concentration at 1 h: 23 to 1680 ng/mL
Patients with autism; open-label
  effect of longer treatment on core symptoms: greater magnitude of therapeutic benefits
Patients with autism; open-label, 10 patients
  ABC-C domains: consistent improvements
Patients with autism; open-label, 10 patients, from 90 mg TID, minimum 3 months
  average reduction in the ADOS-2: 30%
Patients with autism; open-label, one child
  ADOS-2 decrease in one child (loss of autism diagnosis): 60%
Patients with autism; study drug discontinued
  benefits after discontinuation: not all of the benefits regressed

From patent publication US12453709B2, “Compositions and methods for treating autism” (priority 2013, dated 2025)
